Marks after values point to notes of the source that are not given here.
Legend:
Aedes aegypti [1] = assay: K & D module mosquito anti-biting (repellent) bioassay; assay type: in vivo
Experimental: Insects: Ae. aegypti(L.) (red eye Liverpool strain) and An. stephensi Liston used in the study were from colonies maintained at the Walter Reed Army Institute of Research, Silver Spring, Md. […] Adults were maintained in a photoperiod of 12:12 (L:D) h at 27° C. and 80% RH with cotton pads moistened with 10% aqueous sucrose solution. Mated females were 5-15 d old when they were used in bioassays. Ae. aegypti females had access only to water 24 h and neither food nor water for another 24 h before testing. An. stephensi females were provided with water alone 24 h before testing.
Routinely, a six-celled K & D module containing five mosquitoes/cell was positioned over cloth treatments covering the six blood-membrane wells, and trap doors of the K&D modules were opened to expose the treatments to the sets of mosquitoes. After a 3 minute exposure, the number of mosquitoes biting through cloth treatments in each cell was recorded and mosquitoes were prodded back into the cells. […] Experiments were replicated 12, 18, 32, or 56 times. Thus, 60, 90, 160. or 280 mosquitoes were tested against each treatment depending on the experiment, and the proportion of mosquitoes not biting for each treatment was calculated. For each experiment, conducted in different time periods, logistic regression was used to make two sets of one degree-of-freedom contrasts (t-tests): treatments vs. control and treatments vs. SS220 for anti-biting activity within each experiment. The level of significance was set at P=0.05. In all, we conducted 8 biological experiments, and all experiments used Ae. aegypti as the test mosquito with exception of Experiment 7 which used An. stephensi.
Each experiment was replicated 18 times.
Experiments 3, 4, and 5: In each of these experiments, chromatographic fractions of essential oil at their respective percentage compositions of 100 μg essential oil/cm^2 cloth, 100 μg unfractionated essential oil/cm^2 cloth, 25 nmol SS-220/cm^2 cloth and control were compared for mosquito anti-biting activity. Each experiment was replicated 18 times.
(§1) Experiments 6 and 7: These experiments compared the anti-biting activities of SS-220, and plant-isolated callicarpenal, humulene epoxide II, intermedeol and spathulenol at 25 nmol compound/cm^2 cloth versus control against Ae. aegypti and An. stephensi, respectively. Experiment 6 was replicated 32 times and 7 had 56 replicates
The percentage composition of the mixture was a normalized percentage of active components in C. japonica essential oil based upon GC-MS analysis total ion Area % analysis based on largest peaks. Other treatments in the experiment were SS220, callicarpenal, intermedeol, and spathulenol each at 25 nmol/cm^2 cloth versus control.

Anopheles stephensi = assay: as above; assay type: in vivo; conditions: 25 nmol compound/cm^2 cloth; for Proportion Not Biting: Exp. 7, 56 replicates; for repellent activity (in words): Experiment 7
From the text: Insects: Ae. aegypti(L.) (red eye Liverpool strain) and An. stephensi Liston used in the study were from colonies maintained at the Walter Reed Army Institute of Research, Silver Spring, Md. The insects were reared by feeding larvae ground tropical fish flakes (Tetramin Tropical Fish Flakes, Tetra Sales, Blacksburg, Va., www.tetra-fish.com)(Gerberg, E. j., et al., Manual for mosquito rearing and experimental techniques. Amer. Mosq. Control Assoc. Bull. No. 5 (revised), 1994, AMCA. inc., Lake Charles, La.). Adults were maintained in a photoperiod of 12:12 (L:D) h at 27° C. and 80% RH with cotton pads moistened with 10% aqueous sucrose solution. Mated females were 5-15 d old when they were used in bioassays. Ae. aegypti females had access only to water 24 h and neither food nor water for another 24 h before testing. An. stephensi females were provided with water alone 24 h before testing.
Mosquito Bioassay Methods: Experiment were conducted by using, a six-celled in vitro Klun & Debboun (K & D) module bioassay system developed by klun et al. (Klum J. A., et al., Journal of the American Mosquito Control Association. 21: 64-70 (2005)) for quantitative, evaluation of mosquito-repellent (anti-biting) properties of candidate repellent compounds for human use.
(§2) Plant extracts, fractions, or isolated pure plant derived compounds in 95% ethanol solution were each randomly applied to six-4×5 cm areas of organdy cloth and positioned over the membrane-covered blood. A replicate consisted of six treatments: four test chemicals or extract fractions, 95% ethanol treated cloth as control and unfractionated plant extract or a standard repellent compound, (1S, 2′S)-2-methylpiperidinyl-3-cyclohexen-1-carboxamide (SS220) at 25 nmol/cm^2 cloth. The 25 nmol SS220/cm^2 cloth dose was used as a standard, because it was known from human volunteer and in vitro assays to consistently suppress mosquito biting by 80% or more compared to controls in replicated assays (Klun, J. A., et al., Journal of the American Mosquito Control Association, 21: 64-70 (2005)). […] Routinely, a six-celled K & D module containing five mosquitoes/cell was positioned over cloth treatments covering the six blood-membrane wells, and trap doors of the K&D modules were opened to expose the treatments to the sets of mosquitoes. After a 3 minute exposure, the number of mosquitoes biting through cloth treatments in each cell was recorded and mosquitoes were prodded back into the cells. In Experiment 8, we retained all mosquitoes in their respective K&D module cells, each fitted with a water-moist piece of cotton, and observed the mosquitoes for total mosquito toxic knockdown at 6 min, 1 hr, and 24 hr post-treatment exposure. Experiments were replicated 12, 18, 32, or 56 times. Thus, 60, 90, 160. or 280 mosquitoes were tested against each treatment depending on the experiment, and the proportion of mosquitoes not biting for each treatment was calculated. For each experiment, conducted in different time periods, logistic regression was used to make two sets of one degree-of-freedom contrasts (t-tests): treatments vs. control and treatments vs. SS220 for anti-biting activity within each experiment. The level of significance was set at P=0.05. In all, we conducted 8 biological experiments, and all experiments used Ae. aegypti as the test mosquito with exception of Experiment 7 which used An. stephensi.
as §1

Aedes aegypti [2] = assay: Total mosquito toxic knockdown after K & D module exposure (Experiment 8); assay type: in vivo; conditions: Exp. 8, 25 nmol/cm^2 cloth; for Total Knock down 6 min: dead mosquitoes 6 min post-treatment exposure; for Total knock down 1 hr: dead mosquitoes 1 hr post-treatment exposure; for Total knock down 24 hr: dead mosquitoes 24 hr post-treatment exposure
From the text: as §2
Experiment 8: This experiment (12 replicates) compared the antibiting activities of a mixture (25 nmol/cm^2 cloth) of 11.5% callicarpenal, 47.1% intermedeol, and 41.4% spathulenol. The percentage composition of the mixture was a normalized percentage of active components in C. japonica essential oil based upon GC-MS analysis total ion Area % analysis based on largest peaks. Other treatments in the experiment were SS220, callicarpenal, intermedeol, and spathulenol each at 25 nmol/cm^2 cloth versus control. In addition to measurement of anti-biting activity, the number of dead mosquitoes observed at three time intervals were recorded for the six treatments.

mosquito = conditions: 25 nmol SS220/cm^2 cloth; replicated assays; cited from earlier work
An. stephensi = conditions: in vivo; cited from earlier work
Aedes aegypti [3] = conditions: in vivo; cited from earlier work
[4] = Table 7, Example 2, synthetic compounds, dose not given
[5] = Exp. 6, 25 nmol compound/cm^2 cloth, 32 replicates
[6] = Exp. 8, 25 nmol/cm^2 cloth, 12 replicates
[7] = Experiment 6, 25 nmol compound/cm^2 cloth
[8] = Table 8, Example 3, synthetic compounds, dose not given

CC1=CCC[C@@H]2[C@@](C)(CCO)[C@H](C)CC[C@@]12C [13,14,15,16-tetranorclerod-3-en-12-ol]
biting deterrent efficacy (in words) (Aedes aegypti [1]; Example 2, Table 7): equivalent to both callicarpenal and picaridin
Proportion Not Biting (Aedes aegypti [1]; [4]): 0.68^b

C[C@H]1CCCCN1C(=O)[C@@H]1CC=CCC1 [SS220, (1S, 2′S)-2-methylpiperidinyl-3-cyclohexen-1-carboxamide, reference compound]
Proportion Not Biting (Aedes aegypti [1]; Exp. 1, 25 nmole/cm^2 cloth, 3 minute exposure): 0.81^c
Proportion Not Biting (Aedes aegypti [1]; Exp. 2, 25 nmole/cm^2 cloth): 0.90^c
Proportion Not Biting (Aedes aegypti [1]; Exp. 3, 25 nmole/cm^2): 1.00^c
Proportion Not Biting (Aedes aegypti [1]; Exp. 4, 25 nmole/cm^2): 0.92^c
Proportion Not Biting (Aedes aegypti [1]; Exp. 5, 25 nmole/cm^2): 0.95^c
Proportion Not Biting (Aedes aegypti [1]; [5]): 0.80^c
Proportion Not Biting (Aedes aegypti [1]; [6]): 0.67^c
Proportion Not Biting (Anopheles stephensi): 0.78^c
Total Knock down 6 min (Aedes aegypti [2]): 0
Total knock down 1 hr (Aedes aegypti [2]): 1
Total knock down 24 hr (Aedes aegypti [2]): 2
suppression of mosquito biting compared to controls (mosquito): ≥ 80%
repellent activity compared with bench mark repellents (in words) (An. stephensi): equivalent to bench mark repellent compounds Deet and Bayrepel
repellent activity compared with bench mark repellents (in words) (Aedes aegypti [3]): more effective than Bayrepel

C/C1=C\CC(C)(C)/C=C/C[C@@]2(C)O[C@@H]2CC1 [humulene epoxide II]
Proportion Not Biting (Aedes aegypti [1]; [5]): 0.48^a
repellent activity (in words) (Aedes aegypti [1]; [7]): no repellent activity
Proportion Not Biting (Anopheles stephensi): 0.58^a
repellent activity (in words) (Anopheles stephensi): not different from the control

CCC(C)OC(=O)N1CCCCC1CCO (stereo not shown) [picaridin, 2-(2-hydroxyethyl)-1piperidinecarboxylic acid 1-methylpropyl ester, reference compound]
Proportion Not Biting (Aedes aegypti [1]; [4]): 0.62^b

C=C1CC[C@@H]2[C@H]([C@H]3[C@H]1CC[C@]3(C)O)C2(C)C [spathulenol, (1R,4S,5R,6R,7R)-aromadendr-10(14)-en-4-ol]
Proportion Not Biting (Aedes aegypti [1]; [5]): 0.73^c
Proportion Not Biting (Aedes aegypti [1]; [6]): 0.48^b
repellent activity (in words) (Aedes aegypti [1]; [7]): equally active
repellent activity (in words) (Aedes aegypti [1]; Experiment 8, 25 nmol/cm^2 cloth): significantly different from the control
Proportion Not Biting (Anopheles stephensi): 0.75^c
repellent activity (in words) (Anopheles stephensi): as effective as SS220
Total Knock down 6 min (Aedes aegypti [2]): 1
Total knock down 1 hr (Aedes aegypti [2]): 2
Total knock down 24 hr (Aedes aegypti [2]): 0

C[C@@H]1CC[C@]2(C)[C@H](CC[C@@H]3O[C@@]32C)[C@@]1(C)CC=O [β-epoxycallicarpenal]
biting deterrent efficacy (in words) (Aedes aegypti [1]; Example 3, Table 8): equivalent to callicarpenal
Proportion Not Biting (Aedes aegypti [1]; [8]): 0.70^b

α-epoxycallicarpenal
biting deterrent efficacy (in words) (Aedes aegypti [1]; Example 3, Table 8): equivalent to callicarpenal
Proportion Not Biting (Aedes aegypti [1]; [8]): 0.68^b
